In ChEMBL document CHEMBL3832028, “DailyMed|setid=372af566-d6ec-446f-88db-0b4cc83b577f | GLYBURIDE AND METTFORMIN HYDROCHLORIDE - glyburide and hydrochloride tablet, film coated| Citron Pharma LLC” one finds Tmax data, which are given here for one molecule.

The series is described as follows: Tmax for Glyburide following single oral co-administration of 5 mg glyburide and 500 mg metformin hydrochloride to feeding subjects. It is filed as ADME, organism-based. The conditions noted are these: human, in vivo, dietary status Fed, dosed compound id 13, dosed compound name GLYBURIDE, regimen Single dose, tissue Plasma.

Regarding `COc1ccc(Cl)cc1C(=O)NCCc1ccc(S(=O)(=O)NC(=O)NC2CCCCC2)cc1` [GLYBURIDE], the time of peak concentration (Tmax) – broadly, the time from dosing to the highest level – amounted to 2.75 h.
